Laboratory results from patent publication EP0367447A1, “Human epithelial transforming growth factor” (SMITHKLINE BEECHAM CORPORATION, priority 1988, dated 1990).
Ends that are not written are not given here.

Tested on: SW13 cells
Assay: growth of SW13 cells in soft agar (colony formation, Halper et al. 1983, modified)
Type: cell-based, human
Conditions: qualitative; whether the substance stimulates or mimics the growth response
Protocol: By the term 'anchorage independent growth of SW13 cells in soft agar in an autocrine fashion' is meant that the anchorage independent growth of the SW13 cells in soft agar is stimulated by a growth factor produced by the SW13 cells. Such 'anchorage independent growth of SW13 cells in soft agar is measured by the method described by Halper et al., Cancer Research, 43, 1972-1979 (1983). Preferably such method is modified so that the base and upper layers contain 0.5% and 0.3% agarose, respectively in DMEM, 10% fetal bovine serum, and 5000 cells are plated per 3 cm dish.
h-TGFe activity was measured using growth of SW13 cells in soft agar as described by Halper et al., Cancer Research, 43, 1972-1979 (1983), except that the base and upper layers contained 0.5% and 0.3% agarose, respectively in DMEM, 10% fetal bovine serum, and 5000 cells were plated per 3 cm dish.
Human milk was delipidated by ether extraction and acidified with TFA (0.5% final concentration). The acidified material was filtered through a 0.45 µm membrane and concentrated 5-fold using an Amicon YM5 membrane. The concentrate was dialyzed against 0.05% TFA, lyophilized, reconstituted at 10 times the original concentration and bioassayed on SW13 cells.
Samples of colon carcinoma tissue from patients along with two specimens of normal adjacent colon were obtained at surgery and snap frozen in liquid nitrogen. […]

Substance | colony formation by SW13 cells in the soft agar assay
gastrin: Synthetic human gastrin obtained from Sigma (QGPWLEEEEEAYGWMDF; ends and bridges not checked; UniProt P01350 76-92, looked up) | not mimicked
bombesin | not mimicked
